Measured values reported in US5891877A, “Pharmaceutical compounds” (Xenova Limited, priority 1996, dated 1999).
Structures can show the parent of a compound that is named as a salt.

Experiments:
PAI-1 = PAI-1 (Homo sapiens, UniProt P05121); assay: PAI-1 inhibition in the S2251 chromogenic substrate assay (PAI functional assay); format: biochemical; details: Table 1, second part; for inhibition at 20 µM: read-out: INHIBITION OF PAI-1 (degree of inhibition); for IC50: PAI-1, S2251 assay; for inhibition at 20 µM / INHIBITION OF PAI-1 (degree of inhibition): 20 μM; for INHIBITION OF PAI-1 (degree of inhibition): unit assumed
Chain of PAI-1 (P05121 24-402): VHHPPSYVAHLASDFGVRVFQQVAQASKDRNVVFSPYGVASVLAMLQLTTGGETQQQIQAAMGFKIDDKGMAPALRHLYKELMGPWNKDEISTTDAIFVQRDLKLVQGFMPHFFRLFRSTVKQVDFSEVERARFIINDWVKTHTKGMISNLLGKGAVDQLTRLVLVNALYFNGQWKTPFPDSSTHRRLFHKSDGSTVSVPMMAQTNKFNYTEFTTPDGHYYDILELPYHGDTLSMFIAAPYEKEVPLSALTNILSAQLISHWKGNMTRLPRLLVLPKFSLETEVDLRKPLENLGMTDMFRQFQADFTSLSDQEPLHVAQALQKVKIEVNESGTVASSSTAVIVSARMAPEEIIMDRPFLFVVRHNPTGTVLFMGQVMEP
Procedure, shortened: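 Compound preincubated with PAI-1, then added to a tPA/plasminogen system; residual tPA activity converts plasminogen to plasmin.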

[1] = system: cytotoxicity of vincristine; details: J. Antibiotics vol XLIII No. 8, 1018-1020; cited from earlier work

| inhibition at 20 µM (PAI-1) [%] | IC50 (PAI-1) [µM] | INHIBITION OF PAI-1 (degree of inhibition) (PAI-1) [%] | Compound | utility as potentiators of the cytotoxicity of vincristine [1] |
| --- | --- | --- | --- | --- |
| 58 | 9 | – | CN(C)CCOCCOc1ccc(/C=c2\[nH]c(=O)/c(=C/c3ccccc3)[nH]c2=O)s1 [Compound 5388, (3Z,6Z)-6-Benzylidene-3-(5-(2-(2-dimethylaminoethoxy)ethoxy)-2-thienylmethylene)-2,5-piperazinedione] | – |
| – | 12 | 60 | CN(C)CCOCCOc1ccc(/C=c2\[nH]c(=O)/c(=C/c3ccccc3)[nH]c2=O)s1 [Compound 5388.HCl] | – |
| 55 | 2.5 | – | CN(C)CCCCCCOc1ccc(/C=c2\[nH]c(=O)/c(=C/c3ccccc3)[nH]c2=O)s1 [Compound 5389, (3Z,6Z)-6-Benzylidene-3-(5-(6-dimethylaminohexyloxy)-2-thienylmethylene)-2,5-piperazinedione] | – |
| – | – | 57 | CN(C)CCCCCCOc1ccc(/C=c2\[nH]c(=O)/c(=C/c3ccccc3)[nH]c2=O)s1 [Compound 5389.HCl] | – |
| – | 6.5 | 64 | O=C(NCCN1CCc2ccccc2C1)c1ccc(/C=c2\[nH]c(=O)/c(=C/c3ccccc3)[nH]c2=O)cc1 [Compound 5391, N-(2-(1,2,3,4-Tetrahydro-2-isoquinolyl)ethyl)-4-((3Z,6Z)-6-benzylidene-2,5-dioxo-3-piperazinylidene)methylbenzamide] | – |
| – | 3.5 | 100 | O=C(NCCN1CCc2ccccc2C1)c1ccc(/C=c2\[nH]c(=O)/c(=C/c3ccccc3)[nH]c2=O)cc1 [Compound 5391.HCl] | – |
| – | 20 | 58 | COc1cc2c(cc1OC)CN(CCc1ccc(NC(=O)c3ccc(/C=c4\[nH]c(=O)/c(=C/c5ccccc5)[nH]c4=O)cc3)cc1)CC2 [Compound 5393.HCl] | – |
| 76 | 14 | – | COc1cc2c(cc1OC)CN(CCc1ccc(NC(=O)c3ccc(/C=c4\[nH]c(=O)/c(=C/c5ccccc5)[nH]c4=O)cc3)cc1)CC2 [Compound 5393] | – |
| 59 | 16 | – | O=C(NCCCN1CCc2ccccc2C1)c1ccc(/C=c2\[nH]c(=O)/c(=C/c3ccccc3)[nH]c2=O)cc1 [Compound 5394, N-(3-(1,2,3,4-Tetrahydro-2-isoquinolyl)propyl)-4-((3Z,6Z)-6-benzylidene-2,5-dioxo-3-piperazinylidene)methylbenzamide] | – |
| – | 17 | 62 | O=C(NCCCN1CCc2ccccc2C1)c1ccc(/C=c2\[nH]c(=O)/c(=C/c3ccccc3)[nH]c2=O)cc1 [Compound 5394.HCl] | – |
| – | – | 42 | CN(C)CCCOc1ccc(/C=c2\[nH]c(=O)/c(=C/c3ccc(C(=O)NCCCCN4CCc5ccccc5C4)cc3)[nH]c2=O)cc1 [Compound 5397, N-(4-(1,2,3,4-Tetrahydro-2-isoquinolyl)butyl)-4-((3Z,6Z)-6-(4-(3-dimethylaminopropoxy)benzylidene)-2,5-dioxo-3-piperazinylidene)methylbenzamide] | – |
| – | – | 21 | CN(C)CCCOc1ccc(/C=c2\[nH]c(=O)/c(=C/c3ccc(C(=O)NCCCCN4CCc5ccccc5C4)cc3)[nH]c2=O)cc1 [Compound 5397.HCl] | – |
| 37 | – | – | COc1cc2c(cc1OC)CN(CCc1ccc(NC(=O)c3ccc(/C=c4\[nH]c(=O)/c(=C/c5ccc([N+](=O)[O-])cc5)[nH]c4=O)cc3)cc1)CC2 [Compound 5402] | – |
| – | – | – | Cn1c(=O)/c(=C/c2ccccc2)[nH]c(=O)/c1=C/c1ccccc1 [piperafizine A] | potentiators of the cytotoxicity of vincristine |
| – | – | – | O=c1[nH]/c(=C\c2ccccc2)c(=O)[nH]/c1=C\c1ccccc1 [piperafizine B] | potentiators of the cytotoxicity of vincristine |
